# Experimental data reported in patent US11584763B2, “Chromenopyridine derivatives as phosphatidylinositol phosphate kinase inhibitors” (HIBERCELL, INC., priority 2017, dated 2023).
# Legend:
# Assay type in all cases: biochemical
# PIP4K 2A [1] = biological target: T1, PIP4K 2A (Homo sapiens, UniProt P48426); test: Kinase Assay PIP4K2 A (PIP4KtypeIIA inhibition assay); parameters: made in house; host or cells: E. coli; conditions: compounds listed under IC50 bin headings
# T1 sequence (P48426 1-406): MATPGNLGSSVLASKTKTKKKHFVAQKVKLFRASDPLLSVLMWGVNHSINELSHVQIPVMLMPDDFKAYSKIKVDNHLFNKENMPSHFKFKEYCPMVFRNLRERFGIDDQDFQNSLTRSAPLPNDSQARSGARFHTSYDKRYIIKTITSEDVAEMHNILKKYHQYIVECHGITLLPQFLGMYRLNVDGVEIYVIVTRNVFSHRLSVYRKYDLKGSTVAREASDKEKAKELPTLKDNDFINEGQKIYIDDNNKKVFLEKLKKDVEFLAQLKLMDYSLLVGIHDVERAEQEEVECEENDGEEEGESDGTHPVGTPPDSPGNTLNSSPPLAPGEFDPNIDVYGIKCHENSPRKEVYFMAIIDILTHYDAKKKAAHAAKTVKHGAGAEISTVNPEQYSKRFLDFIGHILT
# Description: GST tagged PIP4KtypeIIA and B enzymes were overexpressed in E. Coli and purified to >80% homogeneity. Phosphatidyl inositol-5-phosphate (PI5P, Cat. #850152, Avanti Polar Lipids Inc.) was used as the lipid substrate and phosphatidyl ethanolamine (DOPE 18:1, Cat. #850725, Avanti Polar Lipids Inc.) was used as the carrier lipid for assays. Ultrapure ATP and GTP was purchased from Bellbrooke Labs. ADP Glo reagents were obtained from Promega. Transcreener FI reagent was obtained from Bellbrooke labs.
# Enzyme preparation: GST-tagged PIP4KtypeIIA (5 uL, 1.43 mg/mL) was diluted (1:10) to 50 uL using HNE buffer. From the 1:10 diluted stock, a 6.4 uL aliquot was diluted further to 5 mL using HNE buffer to yield 5× enzyme stock (2.5 nM).
# Lipid Preparation: In a 10 mL pyrex glass vial, 1 ug of PI5P and 1 ug of DOPE were suspended in 2.5 mL of HEPES buffer mix and 2.5 mL of H:E buffer. The contents were mixed and sonicated for 3 min to yield a translucent lipid stock.
# Compound Preparation: Compounds were stored as 5 mM stocks in neat DMSO as room temperature in glass vials. 5 mM stocks were diluted to 2 mM and then serially diluted (3×) in neat DMSO in 96 well polypropylene plates. From the serially diluted stocks, 3 uL was delivered into 250 uL of 25% DMSO (in water) to generate 5× compound stocks. Typically, the highest compound conc. was 24 uM.
# The assay volume was kept at 25 uL. To each well of the reaction plate, 10 uL of lipid stock (1:1 ratio PI5P:DOPE) was delivered. This was followed by the addition of 5 uL of compound in 25% DMSO. Then, to each well, 5 uL of 2.5 nM (5×) typeIIA enzyme was delivered. The contents were mixed well and incubated for 1 h at 27 C. After 1 h, reaction was initiated by adding 5 uL of 50 uM ATP and the contents were mixed well with a multi-channel pipetteman. The final concentration of the reagents are as follows: 50 mM HEPES, pH 7.3, 10 mM MgCl2, 20 mM NaCl, 0.01% v/v triton-X100, 5% DMSO, 10 uM ATP, 80 uM (2 ug) PI5P, 2 ug DOPE, and 0.5 nM PIP4KIIA. Typically, the highest conc. of compounds was 4.8 uM and the lowest conc. was 0.
# After 1 hr, the reaction was quenched by adding 25 uL of ADP Glo reagent. The contents were incubated for 1 hr. Afterwards, 50 uL of kinase detection reagent was delivered. The contents were incubated for another hour. The luminescence was read using Molecular Devices Paradigm plate reader. […] The blanks were averaged and subtracted from all other wells. Using a calibration curve, RLU was converted to uM ADP (product). IC50 was calculated by plotting the residual activity (expressed as % No inhibitor control) vs. log [Inh. conc.]
# PIP4K2B = biological target: T2, PIP4K2B (Homo sapiens, UniProt P78356); test: Trans-FI P kinase assay PIP4K2B (PIP4KtypeIIB inhibition assay); conditions: compounds listed under IC50 bin headings; 100 uM GTP; read-out: Trans-FI P kinase assays: PIP4K2B IC50
# T2 construct: made in house; host or cells: E. coli
# T2 sequence (P78356 1-416): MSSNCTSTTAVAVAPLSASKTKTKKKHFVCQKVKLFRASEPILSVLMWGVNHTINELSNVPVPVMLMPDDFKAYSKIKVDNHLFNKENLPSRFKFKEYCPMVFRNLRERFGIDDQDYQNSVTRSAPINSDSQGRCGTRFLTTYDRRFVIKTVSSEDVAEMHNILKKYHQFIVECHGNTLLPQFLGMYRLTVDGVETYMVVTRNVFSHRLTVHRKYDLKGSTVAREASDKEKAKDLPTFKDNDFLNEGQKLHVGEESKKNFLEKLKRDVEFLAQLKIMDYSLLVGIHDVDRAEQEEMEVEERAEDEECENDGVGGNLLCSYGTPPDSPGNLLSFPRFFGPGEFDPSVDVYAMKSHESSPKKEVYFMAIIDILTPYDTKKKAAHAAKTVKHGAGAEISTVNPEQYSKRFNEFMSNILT
# Method in brief: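 Transcreener FI fluorescence read-out of GDP formed by E. coli-expressed GST-PIP4K2B (5 nM) using 100 uM GTP and 80 uM PI5P with DOPE carrier lipid, pH 7.3, 2 h reaction. Compounds (up to 4.8 uM) were preincubated with enzyme 1 h at 27 C; IC50 fitted from residual activity relative to no-inhibitor control.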
# PIP4K 2A [2] = biological target: T1, PIP4K 2A; test: ADP-glo kinase assay PIP4K 2A; parameters: 4 nM PIP4K2A (full length protein, SignalChem); purchased SignalChem; conditions: compounds listed under IC50 bin headings
# Method in brief: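 Inhibition was calculated versus DMSO controls from ADP-Glo luminescence and fitted to IC50 over a 10-point, threefold series. Compound was first pre-incubated 15 min at room temperature with PIP4K2A (full-length; 4 nM in the enzyme/substrate mix) and PI(5)P diC8 (100 μM in that mix). The reaction then ran for 1 h after adding 60 μM ATP solution, in MOPS pH 7.2/MgCl2/Tween buffer.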
SMILES,IC50 (PIP4K 2A [1]),IC50 (PIP4K2B),IC50 (PIP4K 2A [2])
"CC1Oc2cc(N3CCCC3=O)ccc2-c2cnc(Nc3cncc(S(C)(=O)=O)c3)cc21 (stereo not drawn) [Example 91, 1-(5-methyl-3-((5-(methylsulfonyl)pyridin-3-yl)amino)-5H-chromeno[4,3-c]pyridin-8-yl)pyrrolidin-2-one]",10 to 100 nM,> 1000 nM,10 to 100 nM
"COCCC(=O)N1CCN(c2cncc(Nc3cc4c(cn3)-c3cc(F)c(N5CCCC5=O)cc3OC4(C)C)c2)CC1 [Example 173, 1-(9-fluoro-3-((5-(4-(3-methoxypropanoyl)piperazin-1-yl)pyridin-3-yl)amino)-5,5-dimethyl-5H-chromeno[4,3-c]pyridin-8-yl)pyrrolidin-2-one]",1 to 10 nM,10 to 100 nM,1 to 10 nM
"CC1c2cc(Nc3cccnc3)ncc2-c2ccc(N3CCCC3=O)cc2N1C (stereo not drawn) [Example 43, 1-(5,6-dimethyl-3-(pyridin-3-ylamino)-5,6-dihydrobenzo[c][2,6]naphthyridin-8-yl)pyrrolidin-2-one]",10 to 100 nM,> 1000 nM,10 to 100 nM
"COc1ncc(Nc2cc3c(cn2)-c2ccc(N4CCCC4=O)cc2OC3C)cc1NS(C)(=O)=O (stereo not drawn) [Example 88, N-(2-methoxy-5-((5-methyl-8-(2-oxopyrrolidin-1-yl)-5H-chromeno[4,3-c]pyridin-3-yl)amino)pyridin-3-yl)methanesulfonamide]",1 to 10 nM,10 to 100 nM,1 to 10 nM
"O=C1CCCN1c1ccc2c(c1)OCc1c(-c3ccncc3)cncc1-2 [Example 202, 1-(4-(pyridin-4-yl)-5H-chromeno[4,3-c]pyridin-8-yl)pyrrolidin-2-one]",100 to 1000 nM,> 1000 nM,> 1000 nM
"COc1ncc(Nc2cc3c(cn2)-c2ccc(N4CCCC4=O)cc2OC3C)cc1N(C)C(C)=O (stereo not drawn) [Example 89, N-(2-methoxy-5-((5-methyl-8-(2-oxopyrrolidin-1-yl)-5H-chromeno[4,3-c]pyridin-3-yl)amino)pyridin-3-yl)-N-methylacetamide]",100 to 1000 nM,> 1000 nM,100 to 1000 nM
"CC1(C)Oc2cc(N3CCCC3=O)ccc2-c2cnc(Nc3cnc4c(c3)N3C(=O)CC[C@H]3CO4)cc21 [Example 73, (S)-2-((5,5-dimethyl-8-(2-oxopyrrolidin-1-yl)-5H-chromeno[4,3-c]pyridin-3-yl)amino)-6,6a,7,8-tetrahydro-9H-pyrido[2,3-b]pyrrolo[1,2-d][1,4]oxazin-9-one]",≤ 1 nM,1 to 10 nM,≤ 1 nM
"CN(C)C(=O)c1ccc2c(c1)OC(C1CC1)c1cc(Nc3cccnc3)ncc1-2 (stereo not drawn) [Example 34, 5-cyclopropyl-N,N-dimethyl-3-(pyridin-3-ylamino)-5H-chromeno[4,3-c]pyridine-8-carboxamide]",1 to 10 nM,10 to 100 nM,1 to 10 nM
"CC(=O)N1CCOc2ncc(Nc3cc4c(cn3)-c3ccc(C(=O)N(C)C)cc3OC4C)cc21 (stereo not drawn) [Example 70, 3-((1-acetyl-2,3-dihydro-1H-pyrido[2,3-b][1,4]oxazin-7-yl)amino)-N,N,5-trimethyl-5H-chromeno[4,3-c]pyridine-8-carboxamide]",≤ 1 nM,1 to 10 nM,≤ 1 nM

# Next, values leading:
IC50 (PIP4K 2A [1]),IC50 (PIP4K2B),IC50 (PIP4K 2A [2]),SMILES
≤ 1 nM,10 to 100 nM,1 to 10 nM,"CC1Oc2cc(N3CCCC3=O)ccc2-c2cnc(Nc3cncc(N4CCN(C)C4=O)c3)cc21 (stereo not drawn) [Example 53, 1-methyl-3-(5-((5-methyl-8-(2-oxopyrrolidin-1-yl)-5H-chromeno[4,3-c]pyridin-3-yl)amino)pyridin-3-yl)imidazolidin-2-one]"
≤ 1 nM,10 to 100 nM,1 to 10 nM,"CC1Oc2cc(N3CCCC3=O)ccc2-c2cnc(Nc3cncc(Nc4cccnn4)c3)cc21 (stereo not drawn) [Example 131, 1-(5-methyl-3-((5-(pyridazin-3-ylamino)pyridin-3-yl)amino)-5H-chromeno[4,3-c]pyridin-8-yl)pyrrolidin-2-one]"
≤ 1 nM,10 to 100 nM,1 to 10 nM,"CC(C)S(=O)(=O)N1CCOc2ncc(Nc3cc4c(cn3)-c3ccc(N5CCCC5=O)cc3OC4)cc21 [Example 79, 1-(3-((1-(isopropylsulfonyl)-2,3-dihydro-1H-pyrido[2,3-b][1,4]oxazin-7-yl)amino)-5H-chromeno[4,3-c]pyridin-8-yl)pyrrolidin-2-one]"
≤ 1 nM,1 to 10 nM,≤ 1 nM,"CC1Oc2cc(N3CCCC3=O)ccc2-c2cnc(Nc3cncc(N4CCN(Cc5cscn5)C4=O)c3)cc21 (stereo not drawn) [Example 56, 1-(5-((5-methyl-8-(2-oxopyrrolidin-1-yl)-5H-chromeno[4,3-c]pyridin-3-yl)amino)pyridin-3-yl)-3-(thiazol-4-ylmethyl)imidazolidin-2-one]"
≤ 1 nM,1 to 10 nM,≤ 1 nM,"O=C1CCCN1c1ccc2c(c1)OC1(CCC1)c1cc(Nc3cnc4c(c3)N3C(=O)CC[C@H]3CO4)ncc1-2 [Example 195, (S)-2-((8-(2-oxopyrrolidin-1-yl)spiro[chromeno[4,3-c]pyridine-5,1′-cyclobutan]-3-yl)amino)-6,6a,7,8-tetrahydro-9H-pyrido[2,3-b]pyrrolo[1,2-d][1,4]oxazin-9-one]"
≤ 1 nM,1 to 10 nM,≤ 1 nM,"COC(=O)N1CCOc2ncc(Nc3cc4c(cn3)-c3ccc(N5CCCC5=O)cc3OC4C)cc21 (stereo not drawn) [Example 83, methyl 7-((5-methyl-8-(2-oxopyrrolidin-1-yl)-5H-chromeno[4,3-c]pyridin-3-yl)amino)-2,3-dihydro-1H-pyrido[2,3-b][1,4]oxazine-1-carboxylate]"
≤ 1 nM,10 to 100 nM,1 to 10 nM,"COCCC(=O)N1CCN(c2cncc(Nc3cc4c(cn3)-c3ccc(N5CCCC5=O)cc3OC4(C)C)c2)CC1 [Example 170, 1-(3-((5-(4-(3-methoxypropanoyl)piperazin-1-yl)pyridin-3-yl)amino)-5,5-dimethyl-5H-chromeno[4,3-c]pyridin-8-yl)pyrrolidin-2-one]"
